# Like-named read-outs stand apart in the source and are kept apart here.
# How the values were obtained:
# [1] = Plasma pharmacokinetics in mice; assay type: in vivo; conditions: for bioavailability: read-out: absolute bioavailability
# Experimental: A single dose (10 mg/kg) and various routes of administration (intravenous, oral, and subcutaneous) were used in order to approximate its in vivo disposition and interpret the results of subchronic toxicity studies and forthcoming in vivo xenograft studies. Diindole 13 was administered to groups (n=60) of mice for each route of administration. Mice (n=5 per time point) were sacrificed at up to twelve different time points (pre-dose and up to 24 h post-dose), and plasma samples were stored at −80° C. until HPLC analysis. An HPLC/UV analytical method was developed and validated to determine diindole 13 concentrations in plasma, with a linear range of 0.02 to 20 μg/mL and intra- and inter-day coefficients of variation at all concentrations less than 6%.
# CV-1 = assay: Cell viability SRB assay, 96 h; assay type: cell-based; conditions: Cercopithecidae, CV-1 fibroblast cell line
# Experimental: Cells were plated in 96-well plates at a density of 800-5,000 cells/well, depending on the cell line, in their required growth media containing 10% fetal bovine serum. Preliminary studies were performed with each cell line using a variety of cell densities and incubation times to determine appropriate seeding densities. The compound of interest was dissolved in DMSO, diluted in cell culture medium (final DMSO concentration was less than 0.5% v/v), and added to quadruplicate wells at final concentrations ranging from 0 to 100 μM. Control wells to which only drug-free vehicle was added were included as negative controls.
# Cells were incubated for 96 hour at 37° C. in a humidified atmosphere containing 5% carbon dioxide.
# PC-3 xenograft = assay: Antitumor activity in PC-3 xenograft; assay type: in vivo, Balb/c mice; conditions: 50, 100, or 150 mg/kg/d, 5 days on/2 days off
# Experimental: PC-3 tumor cells (2×10^6 cells) were suspended in saline and injected S.C. in both flanks of recipient mice (n=15). Tumor size was measured every other day and volume calculated as V=π/6*(length)x(width)^2 (75). […] Tumor growth and body weight was monitored every other day for the remainder of the study.
# Tubulin proteins = assay: Tubulin polymerization in vitro (absorbance 340 nm); assay type: biochemical; conditions: 20 μM, 37° C., 30 minutes
# Experimental: Cell viability (LNCaP, PC-3 prostate, DU145, PPC-1, and TSU-Pr1 prostate cancer cell lines, HT-29 colon cancer cell line, and MCF-7 breast cancer cell line) was quantitated using the sulforhodamine B (SRB) assay after 96 h coincubation with different concentrations of compound in 96-well plates. Cell viability of leukemia cells (K562 and doxorubicin-resistant K562/Dox) was quantitated by MTT assay after 96 h coincubation with different concentrations of compound in 96-well plates. Drug-induced apoptosis was determined by anti-histone ELISA assay and DNA laddering. Cell cycle progression was assessed by propidium iodide staining and fluorescence-activated cell sorting (FACS) analysis. In vitro tubulin polymerization assay was determined by CytoDYNAMIX ScreenTM3 (CDS-03) kits according to the manufacturer's instructions. […]
# Tubulin proteins (greater than 99% purity) were suspended (300 μg per sample) with 100 μl G-PEM buffer composed of 80 mM PIPES (piperazine-N,N′-bis(2-ethanesulfonic acid)), 2 mM MgCl2, 0.5 mM egtazic acid and 1.0 mM guanosine triphosphate (GTP), pH 6.9, plus 5% glycerol in the absence or presence of the compound 13 at 4° C. The sample mixture was transferred to the prewarmed 96-well plate and absorbance was detected each minute for 30 minutes at 340 nm at 37° C.
# [2] = system: MDR cell lines with high levels of P-gp, MRP1, MRP2, or BCRP; assay: Cytotoxicity assay using MDR cell lines; assay type: cell-based, human; conditions: MRP1, MRP2, BCRP over-expressing cells
# From the text: MTT (3-(4,5-dimethylthiazol-2-yl)-2,5-diphenyltetrazolium bromide) assay was also used for the leukemia cell lines. […] Cells were stained with SRB solution or MTT solution.
# Since ABC transporters are thought to be one of the major causes of MDR of anticancer drugs, the antitumoral efficacy of 68 was compared with other anticancer drugs in a cytotoxicity assay using MDR cell lines with high levels of P-gp, MRP1, MRP2, or BCRP (Table 1). […] In contrast, the cytotoxicity efficacy of 68 against cancer cells was unaltered by the MDR phenotypes.
# HEK293-482R2 = assay: Growth inhibition assay (96 h); assay type: cell-based, human
# cyclin B1, Cdc25C, Cdc2 = assay: Western blot of G2-M regulators; assay type: cell-based, human; conditions: PC-3 cells, 24 h treatment
# Experimental: Treated cells were lysed in cold lysis buffer (20 mM Tris-HCl, pH 7.5, 150 mM NaCl, 1 mM Na2 EDTA, 1% Triton x-100, and freshly added Na3VO4 (2 mM), NaF (20 mM) and complete protease inhibitor cocktail). For each sample, an aliquot (20 to 40 μg) of total protein was loaded and run on a SDS-Page gel. Protein was transferred to nitrocellulose membranes (Bio-Rad Laboratories, Hercules, Calif.), blocked with 5% non-fat milk, incubated with primary antibody overnight at 4° C., and then incubated with secondary antibody at rt for 1 h. ECL™ (GE Healthcare Bio-Sciences Corp., Piscataway, N.J.) was used for detection. The band intensity was measured by densitometry using TotalLab TL100 Software v2006 (Nonlinear Dynamics Ltd., Newcastle upon Tyne, UK).
# tubulin [3] = assay: In vitro binding assay by spin column; design: species or system bovine; conditions: colchicine-binding site, 37° C., 1 h
# tubulin [4] = system: T1, tubulin; assay: In vitro binding assay by spin column; design: species or system bovine; conditions: vinblastine-binding site, 37° C., 1 h
# T1 construct: IC50 of microtubule formation (tubulin polymerization); other: cell free, turbidity 340 nm, 40 min
# [5] = mouse, plasma, iv, 10 mg/kg, I.V.
# [6] = mouse, plasma, po, 10 mg/kg, P.O.
# [7] = mouse, plasma, sc, 10 mg/kg, S.C.
smiles,measurement,setting,value
"O=C(c1cccc(-c2cc3ccccc3[nH]2)c1)c1cc2ccccc2[nH]1 [Compound 13, (1H-indol-2-yl)-[3-(1H-indol-2-yl)phenyl]methanone]",metabolism (LC/MS/MS analysis of metabolites),[1],extensive oxidative metabolism with subsequent sulfation
same,volume of distribution relative to total body water (0.6 L/kg),[1],about 10 fold
same,F,"[1]; 10 mg/kg, I.V.",1.00
same,CL,"[1]; 10 mg/kg, P.O.",14.3 L/h/kg
same,F,"[1]; 10 mg/kg, P.O.",0.20
same,CL,"[1]; 10 mg/kg, S.C.",5.7 L/h/kg
same,F,"[1]; 10 mg/kg, S.C.",0.73
same,drug excreted unchanged in urine and feces,[1]; after intravenous administration,less than 5%
same,hepatic extraction,[1]; from clearance and hepatic blood flow […],exceeding 0.75
same,bioavailability,"[1]; mouse, plasma, 10 mg/kg, oral (P.O.)",29%
same,AUC,[1]; [5],2410 ng·h/mL
same,Cmax,[1]; [5],2860 ng/mL
same,Tmax,[1]; [5],0.08 h
same,clearance,[1]; [5],~66.7 mL/min/kg
same,half-life,[1]; [5],< 180 min
same,Vd,"[1]; mouse, plasma, iv, 10 mg/kg, I.V., read-out: Vss",6.35 L/kg
same,AUC,[1]; [6],690 ng·h/mL
same,Cmax,[1]; [6],120 ng/mL
same,Tmax,[1]; [6],~3 h
same,half-life,[1]; [6],178 min
same,AUC,[1]; [7],1770 ng·h/mL
same,Cmax,[1]; [7],310 ng/mL
same,Tmax,[1]; [7],~3 h
same,half-life,[1]; [7],271 min
same,bioavailability,"[1]; mouse, plasma, sc, 10 mg/kg, subcutaneous (S.C.)",73%
same,IC50,CV-1,78.3 ± 35 nM
same,tumor growth,PC-3 xenograft,suppressed tumor growth in a dose-dependent manner
same,effect on tubulin polymerization,Tubulin proteins,completely block
"COc1cc(C(=O)c2cccc(-c3cc4ccccc4[nH]3)c2)cc(OC)c1OC [Compound 68, [3-(1H-Indol-2-yl)-phenyl]-(3,4,5-trimethoxy-phenyl)-methanone]",cytotoxicity efficacy against cancer cells with MDR phenotypes,[2],unaltered
same,resistance factor (ratio of IC50 resistant subline to parental cell line),HEK293-482R2; HEK293-482R2 (BCRP) vs HEK293-pcDNA3-10,(1.0)
same,IC50,"HEK293-482R2; Homo sapiens, HEK293-482R2, BCRP over-expressed, 96 h",13.6 ± 1.3 nM
same,"concentration at which cyclin B1 accumulation, Cdc25C (Ser216) and Cdc2 dephosphorylation were observed","cyclin B1, Cdc25C, Cdc2",higher than 50 nM
same,[3H]podophyllotoxin binding to tubulin,tubulin [3],inhibited
same,displacement of [3H]vinblastine from tubulin,tubulin [4],not able to displace
